How the values were obtained:
[1] = tested on: CHEAL (Chenopodium album); test: Postemergence herbicidal evaluation; type: in vivo, L.
Outline: (§1)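 Seedlings grown about two weeks in flats, sprayed, then kept under standard greenhouse care. Rated visually 4–5 weeks after treatment on a 0–9 scale (stand, vigour, malformation, size, chlorosis, overall appearance) relative to untreated control; repeat tests averaged.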

[2] = tested on: CASOB (Cassia obtusifolia); test: Postemergence herbicidal evaluation; type: in vivo, L.
Outline: as §1

[3] = tested on: AMBEL (Ambrosia artemisifolia); test: Postemergence herbicidal evaluation; type: in vivo, L.
Outline: as §1

GALAP (Galium aparine) [4] = test: Preemergence herbicidal evaluation; type: in vivo; details: preemergence, rated 4-5 weeks after treatment
Outline: (§2)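 Applied before emergence as an aqueous acetone spray over seeded soil. Read-out: 0–9 visual rating covering plant stand, vigor, size, chlorosis, malformation and overall appearance compared with control, taken 4–5 weeks after spraying.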

ORYSAT (Rice, Tebonnet) [5] = test: Flooded paddy, post-transplant and postemergence rice tolerance; type: in vivo, Oryza sativa, (L.) Tebonnet; details: post-transplant rice, rated 3-4 weeks after treatment
Outline: (§3)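 Flood water 1.5-3 cm deep throughout; test compound dosed into it as 50/50 v/v aqueous/acetone, ~0.0320-0.2500 kg/ha ai. Plants: weeds 3-5 cm tall, rice seedlings 1.5-2.5 leaf. Read-out 3-4 wk later, visual 0-9 vs control.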

CYPIR (Cyperus iria) = test: Flooded paddy, postemergence weed control; type: in vivo; details: postemergence weeds, rated 3-4 weeks after treatment
Outline: as §3

[6] = tested on: IPOHE (Ipomoea hederacea); test: Postemergence herbicidal evaluation; type: in vivo, (L.) Jacq.
Outline: as §1

[7] = tested on: CYPSE (Cyperus serotinus); test: Flooded paddy, postemergence weed control; type: in vivo, Rottb.; details: postemergence weeds, rated 3-4 weeks after treatment
Outline: as §3

[8] = tested on: MOOVA (Monochoria vaginalis); test: Flooded paddy, postemergence weed control; type: in vivo, Presl.; details: postemergence weeds, rated 3-4 weeks after treatment
Outline: as §3

[9] = tested on: SAGPY (Sagittaria pygmaea); test: Flooded paddy, postemergence weed control; type: in vivo, L.; details: postemergence weeds, rated 3-4 weeks after treatment
Outline: as §3

[10] = tested on: TRZAWR (Wheat, Winter, cv Riband); test: Preemergence herbicidal evaluation; type: in vivo, Triticum aestivum; details: preemergence, rated 4-5 weeks after treatment
Outline: as §2

[11] = tested on: GLXMAW (Soybean, Williams); test: Postemergence herbicidal evaluation; type: in vivo, Glycine max, (L.) Merr. cv Williams
Outline: as §1

[12] = tested on: ABUTH (Abutilon theophrasti); test: Postemergence herbicidal evaluation; type: in vivo, Medic.
Outline: as §1

ORYSAT (Rice, Tebonnet) [13] = test: Preemergence herbicidal evaluation; type: in vivo, Oryza sativa, (L.) Tebonnet; details: preemergence, rated 4-5 weeks after treatment
ORYSAT (Rice, Tebonnet) [14] = test: Postemergence herbicidal evaluation; type: in vivo, Oryza sativa, (L.) Tebonnet
Outline: as §1

[15] = tested on: ECHCG (Echinochloa crus-galli); test: Preemergence herbicidal evaluation; type: in vivo, (L.) Beau; details: preemergence, rated 4-5 weeks after treatment
Outline: as §2

SETVI (Setaria viridis) = test: Preemergence herbicidal evaluation; type: in vivo, (L.) Beau; details: preemergence, rated 4-5 weeks after treatment
Outline: as §2

[16] = tested on: ECHORC (Echinochloa oryzoides); test: Flooded paddy, postemergence weed control; type: in vivo, Echinochloa oryzoides (Ard.) Fritsch.; details: postemergence weeds, rated 3-4 weeks after treatment
Outline: as §3

ZEAMX (Corn, Field) = test: Postemergence herbicidal evaluation; type: in vivo, Zea mays, L.
Outline: as §1

GALAP (Galium aparine) [17] = test: Postemergence herbicidal evaluation; type: in vivo
Outline: as §1

Cc1cc(C)c(-c2nsc3ccc(-n4c(=O)cc(C(F)(F)F)n(C)c4=O)cc23)s1 [Compound 27, 3-[3-(3,5-dimethyl-2-thienyl)-1,2-benzisothiazol-5-yl]-1-methyl-6-(trifluoromethyl)uracil]
Postemergence herbicidal rating, CHEAL ([1]; rate 0.0320 kg/ha): 9.0 | Postemergence herbicidal rating, CHEAL ([1]; rate 0.0620 kg/ha): 9.0 | Postemergence herbicidal rating, CASOB ([2]; rate 0.0320 kg/ha): 3.0 | Postemergence herbicidal rating, CASOB ([2]; rate 0.0620 kg/ha): 3.0 | Postemergence herbicidal rating, AMBEL ([3]; rate 0.0320 kg/ha): 9.0 | Postemergence herbicidal rating, AMBEL ([3]; rate 0.0620 kg/ha): 9.0 | GALAP preemergence herbicidal rating (GALAP (Galium aparine) [4]; Rate 0.0620 kg/ha): 9.0 | GALAP preemergence herbicidal rating (GALAP (Galium aparine) [4]; Rate 0.1250 kg/ha): 7.0 | GALAP preemergence herbicidal rating (GALAP (Galium aparine) [4]; Rate 0.2500 kg/ha): 8.0 | herbicide rating (0-9) ORYSAT (rice tolerance) (ORYSAT (Rice, Tebonnet) [5]; 0.0320 kg/ha into flood water): 2.0 | herbicide rating (0-9) ORYSAT (rice tolerance) (ORYSAT (Rice, Tebonnet) [5]; 0.0620 kg/ha into flood water): 4.0 | herbicide rating (0-9) ORYSAT (rice tolerance) (ORYSAT (Rice, Tebonnet) [5]; 0.1250 kg/ha into flood water): 6.0 | herbicide rating (0-9) CYPIR (CYPIR (Cyperus iria); 0.0320 kg/ha into flood water): 9.0 | herbicide rating (0-9) CYPIR (CYPIR (Cyperus iria); 0.0620 kg/ha into flood water): 9.0 | herbicide rating (0-9) CYPIR (CYPIR (Cyperus iria); 0.1250 kg/ha into flood water): 9.0 | Postemergence herbicidal rating, IPOHE ([6]; rate 0.0320 kg/ha): 9.0 | Postemergence herbicidal rating, IPOHE ([6]; rate 0.0620 kg/ha): 9.0 | herbicide rating (0-9) CYPSE ([7]; 0.0320 kg/ha into flood water): 0.0 | herbicide rating (0-9) CYPSE ([7]; 0.0620 kg/ha into flood water): 0.0 | herbicide rating (0-9) CYPSE ([7]; 0.1250 kg/ha into flood water): 4.0 | herbicide rating (0-9) MOOVA ([8]; 0.0320 kg/ha into flood water): 6.0 | herbicide rating (0-9) MOOVA ([8]; 0.0620 kg/ha into flood water): 9.0 | herbicide rating (0-9) MOOVA ([8]; 0.1250 kg/ha into flood water): 9.0 | herbicide rating (0-9) SAGPY ([9]; 0.0320 kg/ha into flood water): 0.0 | herbicide rating (0-9) SAGPY ([9]; 0.0620 kg/ha into flood water): 0.0 | herbicide rating (0-9) SAGPY ([9]; 0.1250 kg/ha into flood water): 0.0 | TRZAWR preemergence herbicidal rating ([10]; Rate 0.0620 kg/ha): 2.0 | TRZAWR preemergence herbicidal rating ([10]; Rate 0.1250 kg/ha): 2.0 | TRZAWR preemergence herbicidal rating ([10]; Rate 0.2500 kg/ha): 2.0 | Postemergence herbicidal rating, GLXMAW ([11]; rate 0.0320 kg/ha): 6.5 | Postemergence herbicidal rating, GLXMAW ([11]; rate 0.0620 kg/ha): 6.0 | Postemergence herbicidal rating, ABUTH ([12]; rate 0.0320 kg/ha): 9.0 | Postemergence herbicidal rating, ABUTH ([12]; rate 0.0620 kg/ha): 9.0 | ORYSAT preemergence herbicidal rating (ORYSAT (Rice, Tebonnet) [13]; Rate 0.0620 kg/ha): 1.0 | ORYSAT preemergence herbicidal rating (ORYSAT (Rice, Tebonnet) [13]; Rate 0.1250 kg/ha): 2.0 | ORYSAT preemergence herbicidal rating (ORYSAT (Rice, Tebonnet) [13]; Rate 0.2500 kg/ha): 1.0 | Postemergence herbicidal rating, ORYSAT (ORYSAT (Rice, Tebonnet) [14]; rate 0.0320 kg/ha): 4.5 | Postemergence herbicidal rating, ORYSAT (ORYSAT (Rice, Tebonnet) [14]; rate 0.0620 kg/ha): 4.5 | ECHCG preemergence herbicidal rating ([15]; Rate 0.0620 kg/ha): 6.0 | ECHCG preemergence herbicidal rating ([15]; Rate 0.1250 kg/ha): 7.0 | ECHCG preemergence herbicidal rating ([15]; Rate 0.2500 kg/ha): 7.0 | SETVI preemergence herbicidal rating (SETVI (Setaria viridis); Rate 0.0620 kg/ha): 9.0 | SETVI preemergence herbicidal rating (SETVI (Setaria viridis); Rate 0.1250 kg/ha): 9.0 | SETVI preemergence herbicidal rating (SETVI (Setaria viridis); Rate 0.2500 kg/ha): 9.0 | herbicide rating (0-9) ECHORC ([16]; 0.0320 kg/ha into flood water): 0.0 | herbicide rating (0-9) ECHORC ([16]; 0.0620 kg/ha into flood water): 7.0 | herbicide rating (0-9) ECHORC ([16]; 0.1250 kg/ha into flood water): 9.0 | Postemergence herbicidal rating, ZEAMX (ZEAMX (Corn, Field); rate 0.0320 kg/ha): 5.0 | Postemergence herbicidal rating, ZEAMX (ZEAMX (Corn, Field); rate 0.0620 kg/ha): 5.0 | Postemergence herbicidal rating, GALAP (GALAP (Galium aparine) [17]; rate 0.0320 kg/ha): 2.0 | Postemergence herbicidal rating, GALAP (GALAP (Galium aparine) [17]; rate 0.0620 kg/ha): 4.0
